In ChEMBL document CHEMBL1152151, “Synthesis and preliminary pharmacological evaluation of N-2-(4-(4-(2-substitutedthiazol-4-yl) piperazin-1-yl)-2-oxoethyl)acetamides as novel atypical antipsychotic agents” (Bioorg Med Chem Lett, 2008) one finds inhibition in vivo, Activity and Ratio data, which are given here for five molecules.

The term inhibition in vivo denotes the drop in the measured response relative to a control, in per cent.

Data set [1] concerns Mus musculus. In words: Inhibition of dopamine D2 receptor-mediated apomorphine-induced cage climbing behavior in Swiss albino mouse at 10 mg/kg measured on 10 mins. The format is functional.
Data set [2] has as its system Mus musculus. In words: Inhibition of dopamine D2 receptor-mediated apomorphine-induced cage climbing behavior in Swiss albino mouse at 10 mg/kg measured on 20 mins. The format is functional.
Data set [3] deals with Mus musculus. In words: Inhibition of dopamine D2 receptor-mediated apomorphine-induced cage climbing behavior in Swiss albino mouse at 10 mg/kg measured on 30 mins. The format is functional. The settings on record: 0.5 h.
The subject of data set [4] is Mus musculus. In words: Inhibition of 5HT2A receptor-mediated quipazine-induced head twitches in Swiss albino mouse at 10 mg/kg. The format is functional.
Data set [5] relates to Mus musculus. In words: Inhibition of 5HT2A receptor-mediated quipazine-induced head twitches in Swiss albino mouse at 0.6 mg/kg, ip. The class given is functional, organism-based. On the set-up: dose 0.6 mg/kg.
The species named for data set [6] is Mus musculus. Kind of data set: Toxic cataleptic effect in Swiss albino mouse assessed as maximum average cataleptic time. The class given is toxicity, organism-based. As to conditions: in vivo.
For data set [7], the species on record is Mus musculus. In words: Toxic cataleptic effect against Swiss albino mouse. The format is toxicity, organism-based. As to conditions: in vivo.
Data set [8] relates to Mus musculus. In words: Inhibition of dopamine D2 receptor-mediated apomorphine-induced cage climbing behavior in Swiss albino mouse at 10 mg/kg. The class given is functional.
Data set [9] relates to Mus musculus. Kind of data set: Ratio of inhibition of quipazine-induced head twitches to inhibition of apomorphine-induced cage climbing behavior in Swiss albino mouse at 10 mg/kg. The class given is functional.
For data set [10], the system named is Mus musculus. In words: Inhibition of dopamine D2 receptor-mediated apomorphine-induced cage climbing behavior in Swiss albino mouse at 1 mg/kg, ip. The format is functional, organism-based. On the set-up: dose 1 mg/kg.

Activity calls are given as the source filed them. No cut-off for these calls is given here.

As to `Cc1nc2n(c(=O)c1CCN1CCC(c3noc4cc(F)ccc34)CC1)CCCC2` [RISPERIDONE], the inhibition in vivo at 10 mg/kg came out at 91% with Mus musculus [1]; 91% with Mus musculus [2]; 90% with Mus musculus [3]; 100% with Mus musculus [4]; 91% in the data set with Mus musculus [8]. Further, the result in the data set with Mus musculus [5] was Active. The Activity is on record as 2.54 s in the data set filed under Mus musculus [6] and “Non-toxic” in the data set listed under Mus musculus [7]. In the data set with Mus musculus [9], the Ratio was determined as 1.0989.

For the molecule `CC(=O)NCC(=O)N1CCN(CCc2ccc(-c3csc(C)n3)cc2)CC1`, the inhibition in vivo at 10 mg/kg is 70% with Mus musculus [1]; 65% in the data set on Mus musculus [2]; 70% with Mus musculus [3]; 20% in the data set on Mus musculus [4]; 70% with Mus musculus [8]. The Activity in the data set filed under Mus musculus [6] was 4.62 s; in the data set filed under Mus musculus [7], “Non-toxic”. Besides, in the data set with Mus musculus [9], the Ratio was 0.2857.

As for `CC(=O)NCC(=O)N1CCN(CCc2ccc(-c3nc(C)sc3C)cc2)CC1`, the inhibition in vivo at 10 mg/kg in the data set with Mus musculus [1] is 65%; in the data set with Mus musculus [2], 65%; in the data set with Mus musculus [3], 80%; in the data set with Mus musculus [4], 71%; in the data set with Mus musculus [8] it was 80%. The Activity in the data set filed under Mus musculus [6] is listed as 5.12 s; in the data set listed under Mus musculus [7], “Non-toxic”. In addition, in the data set on Mus musculus [9], the Ratio is 0.8875.

For `O=C(CCCN1CCC(O)(c2ccc(Cl)cc2)CC1)c1ccc(F)cc1`, in the data set with Mus musculus [10], the result was Active.

Consider `CNc1nc(-c2ccc(CCN3CCN(C(=O)CNC(C)=O)CC3)cc2)cs1`, for which the inhibition in vivo at 10 mg/kg in the data set on Mus musculus [1] stood at 60%; in the data set on Mus musculus [2], 50%; in the data set with Mus musculus [3] it was 60%; with Mus musculus [4], 54%; in the data set on Mus musculus [8], 60%. The results for the Activity in the data set filed under Mus musculus [6] and in the data set filed under Mus musculus [7] were 16.54 s and “Non-toxic”, respectively. In the data set on Mus musculus [9], the Ratio was determined as 0.9.
